Results published in patent publication US7563787B2, “Substituted pyrazole compounds” (Miikana Therapeutics, Inc., priority 2005, dated 2009).

Columns and labels:
[1] = target: T1, recombinant Aurora A (Homo sapiens, UniProt O14965); assay: Aurora A (Aurora 2) Inhibition Assay (Z'-Lyte); format: biochemical; conditions: 100 μM compound; ATP 10 μM; 1 h
T1 construct: purchased Upstate, Lake Placid, N.Y
T1 sequence (O14965 1-403): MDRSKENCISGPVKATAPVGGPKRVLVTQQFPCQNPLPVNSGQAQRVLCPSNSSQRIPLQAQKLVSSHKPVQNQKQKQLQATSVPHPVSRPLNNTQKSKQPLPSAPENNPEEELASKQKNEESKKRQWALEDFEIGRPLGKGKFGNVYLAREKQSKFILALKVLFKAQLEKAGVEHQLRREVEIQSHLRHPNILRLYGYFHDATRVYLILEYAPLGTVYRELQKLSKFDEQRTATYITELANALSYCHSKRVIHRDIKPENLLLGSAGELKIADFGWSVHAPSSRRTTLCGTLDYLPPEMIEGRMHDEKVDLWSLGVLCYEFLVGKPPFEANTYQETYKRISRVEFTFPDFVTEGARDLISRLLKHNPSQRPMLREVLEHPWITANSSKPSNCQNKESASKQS
Protocol: Compounds were tested for their potency against recombinant Aurora A (Upstate, Lake Placid, N.Y.) using the PanVera Z'-Lyte kinase assay kit-Ser/[…] peptide (Invitrogen, Carlsbad, Calif.). […] Assays were carried out in half-area 96-well white polystyrene assay plates (Corning, Corning, N.Y.) in a final volume of 20 μl. The reaction was allowed to proceed for 1 h at room temperature in the dark, at which point the development reagent and stop reagent were added according to the manufacturer's instructions. Coumarin (Ex. 400 nm, Em. 465 nm) and fluorescein (Ex. 400 nm, Em. 565 nm) fluorescence values were measured on a SpectraFluor Plus plate reader (Tecan, Durham, N.C.). The emission ratio (coumarin/fluorescein) was determined and used to calculate the percent phosphorylation for each well. […] Typically 20-40% of the substrate was phosphorylated in wells without inhibitor. Dose-response curves of relative Aurora A activity vs. inhibitor concentration were plotted with Grafit (Erithacus Software, Horley, Surrey, UK).

[2] = target: T2, Aurora B kinase (Homo sapiens, UniProt Q96GD4); assay: Aurora B (Aurora 1) Inhibition Assay; format: biochemical; conditions: 100 μM compound; ATP 50 μM; 16 h
T2 construct: purchased BPS Biosciences, San Diego, Calif
T2 sequence (Q96GD4 whole entry): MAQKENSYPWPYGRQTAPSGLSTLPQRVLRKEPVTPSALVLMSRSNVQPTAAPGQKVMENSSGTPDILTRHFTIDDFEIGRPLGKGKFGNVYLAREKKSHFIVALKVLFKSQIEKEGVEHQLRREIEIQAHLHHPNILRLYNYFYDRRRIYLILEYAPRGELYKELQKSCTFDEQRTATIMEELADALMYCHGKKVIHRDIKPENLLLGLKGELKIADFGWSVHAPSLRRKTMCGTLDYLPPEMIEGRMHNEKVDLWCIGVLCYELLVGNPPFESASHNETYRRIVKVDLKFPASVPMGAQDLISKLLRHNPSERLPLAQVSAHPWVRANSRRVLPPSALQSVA
Protocol: Assays for Aurora B kinase inhibition were carried out similarly to those for Aurora A kinase (see above) with the following modifications. Aurora B kinase (BPS Biosciences, San Diego, Calif.) was used as the enzyme, at a concentration was 2.5 μg/mL. The ATP concentration was 50 μM, and the kinase reaction was allowed to proceed for 16 h. Sodium orthovanadate (20 μM) was added to the buffer to inhibit contaminating phosphatases.

[3] = system: HCT-116 cell growth; assay: Whole Cell Cytotoxicity Assay: Sulforhodamine B; format: cell-based, Human; conditions: Homo sapiens, HCT-116; 100 μM compound; 96 hours; SRB staining
Protocol: Human tumor-derived cell lines, HCT116 or MCF7 (ATCC) were plated in a 96 well plate in DMEM containing 10% fetal bovine serum and 2 mM L-glutamine at a density of 500 HCT116 cells or 1,000 MCF7 cells per well and incubated at 37° C., 5% CO2, for 24 hours prior to the addition of experimental compounds. Compounds were added using the dilution series indicated to duplicate plates and the cells were incubated in media plus compound for 96 hours. An additional plate was fixed in 10% TCA at the time of the addition of compound to provide a measurement of the cell population at time zero, the time of drug addition. Following the 96 hour incubation, cells were fixed in situ by gently aspirating off the culture media and then adding 50 ul of ice cold 10% TCA per well and incubation at 4° C. for 60 minutes. The plates were washed with tap water five times and allowed to air dry for 5 minute. 50 ul of a 0.4% (w/v) Sulforhodamine B solution in 1% (v/v) acetic acid was added per well and the cells were incubated for 30 minutes at room temperature. Following staining, plates were washed four times with 1% acetic acid to remove any unbound dye and then allowed to air dry for 5 minutes. The stain was solubilized with 100 ul of 10 mM Tris pH 10.5 per well and placed on an orbital rotator for 5 minutes. The absorbance was read at 570 nm. Percentage growth was calculated using the absorbance readings from the time zero plate (Tz) and the dilution series plate […] which included a column of cells grown in media without compound as a control (C) using the formulas: [(Ti−Tz)/(C−Tz)]×100 for concentrations for which Ti>/=Tz [(Ti−Tz)/Tz]×100 for concentrations for which Ti<Tz.
Three dose response parameters were calculated for each experimental agent. Growth inhibition of 50% (GI50) was calculated from [(Ti−Tz)/(C−Tz)]×100=50, which was the drug concentration resulting in a 50% reduction in the net protein increase (as measured by SRB staining) in control cells during the drug incubation. The drug concentration resulting in total growth inhibition (TGI) was calculated from Ti=Tz. The LC50 (concentration of drug resulting in a 50% reduction in the measured protein at the end of the drug treatment as compared to that at the beginning) indicating a net loss of cells following treatment was calculated from [(Ti−Tz)/Tz]×100=−50. Values are calculated for each of these three parameters if the level of activity was reached; however, if the effect was not reached or was exceeded, the value for that parameter is expressed as greater or less than the maximum or minimum concentration tested.

| Compound | inhibition at 100 µM [1] | inhibition at 100 µM [2] | inhibition at 100 µM [3] |
| --- | --- | --- | --- |
| Cc1cc(Nc2cc(OC3CCNCC3)nc(/C=C/c3ccccc3)n2)n[nH]1 [Example 100] | 100% | 100% | 96% |
| COC(=O)c1cc(Nc2cc(C)n[nH]2)nc(/C=C/c2ccccc2)n1 [Example 26, methyl 6-[(3-methyl-1H-pyrazol-5-yl)amino]-2-[(E)-2-phenylvinyl]pyrimidine-4-carboxylate] | 99% | 95% | 98% |
| COCCNc1cc(Nc2cc(C)[nH]n2)nc(/C=C/c2ccccc2)n1 [Example 163, N^4-(2-methoxyethyl)-N^6-(5methyl-1H-pyrazol-3-yl)-2-styrylpyrimidine-4,6-diamine] | 100% | 100% | 98% |
| CCOC(=O)c1nc(/C=C/c2ccccc2)nc(Nc2cc(C)n[nH]2)c1N [Example 18, ethyl 5-amino-6-[(3-methyl-1H-pyrazol-5-yl)amino]-2-[(E)-2-phenylvinyl]pyrimidine-4-carboxylate] | 100% | 100% | 80% |
| Cc1cc(Nc2cc(NCC3CCCO3)nc(/C=C/c3ccccc3)n2)n[nH]1 (stereo not drawn) [Example 164, N^4-((tetrahydrofuran-2-yl)methyl)-N^6-(5-methyl-1H-pyrazol-3-yl)-2-styrylpyrimidine-4,6-diamine] | 100% | 100% | 96% |
| Cc1cc(Nc2cc(NC3CCOCC3)nc(/C=C/c3ccccc3)n2)n[nH]1 [Example 99, N^4-(tetrahydro-2H-pyran-4-yl)-N^6-(5-methyl-1H-pyrazol-3-yl)-2-styrylpyrimidine-4,6-diamine] | 100% |  | 98% |
| CCOC(=O)c1nc(/C=C/c2ccccc2)nc(Nc2cc(C)n[nH]2)c1[N+](=O)[O-] [Example 17, ethyl 6-[(3-methyl-1H-pyrazol-5-yl)amino]-5-nitro-2-[(E)-2-phenylvinyl]pyrimidine-4-carboxylate] | 62% |  | 93% |
| Cc1cc(Nc2cc(OCCN(C)C)nc(/C=C/c3ccccc3)n2)n[nH]1 [Example 69] | 100% |  | 99% |

More lines, main results first:

| inhibition at 100 µM [1] | inhibition at 100 µM [2] | Compound | inhibition at 100 µM [3] |
| --- | --- | --- | --- |
| 100% | 99% | Cc1cc(Nc2cc(N3CCN(C)CC3)nc(/C=C/c3ccco3)n2)n[nH]1 [Example 60, 2-((E)-2-(furan-2-yl)vinyl)-N-(5-methyl-1H-pyrazol-3-yl)-6-(4-methylpiperazin-1-yl)pyrimidin-4-amine] | 98% |
| 100% | 97% | Cc1cc(Nc2cc(N3CCN(C)CC3)nc(C#Cc3ccccc3)n2)n[nH]1 [Example 30, 6-(4-methylpiperazin-1-yl)-N-(3-methyl-1H-pyrazol-5-yl)-2-(phenylethynyl)pyrimidin-4-amine] | 99% |
| 100% | 99% | Cc1cc(Nc2cc(N3CCN(C)CC3)nc(/C=C\c3ccccc3)n2)n[nH]1 [Example 32, 6-(4-methylpiperazin-1-yl)-N-(3-methyl-1H-pyrazol-5-yl)-2-[(Z)-2-phenylvinyl]pyrimidin-4-amine] | 87% |
| 100% |  | Cc1cc(Nc2cc(NCCN3CCN(C)CC3)nc(/C=C/c3ccccc3)n2)n[nH]1 [Example 77, N^4-(5-methyl-1H-pyrazol-3-yl)-N^6-(2-(4-methylpiperazin-1-yl)ethyl)-2-styrylpyrimidine-4,6-diamine] | 99% |
| 99% |  | CCOC(=O)c1nc(/C=C/c2ccc(OC)cc2)nc(Nc2cc(C)n[nH]2)c1N [Example 23, ethyl 5-amino-2-[(E)-2-(4-methoxyphenyl)vinyl]-6-[(3-methyl-1H-pyrazol-5-yl)amino]pyrimidine-4-carboxylate] | 91% |
| 100% |  | COC(=O)c1ccc(/C=C/c2nc(Nc3cc(C)[nH]n3)c(N)c(N3CCN(C)CC3)n2)cc1 [Example 39, methyl 4-((E)-2-{5-amino-4-(4-methylpiperazin-1-yl)-6-[(3-methyl-1H-pyrazol-5-yl)amino]-pyrimidin-2-yl}vinyl)benzoate] | 97% |
| 100% |  | Cc1cc(Nc2nc(/C=C/c3ccccc3)nc(C(=O)NCCN3CCOCC3)c2N)[nH]n1 [Example 25, N-(2-morphholin-4-ylethyl)-5-amino-6-[(3-methyl-1H-pyrazol-5-yl)amino]-2-[(E)-2-phenylvinyl]pyrimidine-4-carboxamide] | 95% |
| 100% |  | Cc1cc(Nc2cc(N3CCSCC3)nc(/C=C/c3ccccc3)n2)n[nH]1 [Example 83, N-(5methyl-1H-pyrazol-3-yl)-2-styryl-6thiomorpholinopyrimidin-4-amine] | 98% |
| 100% |  | Cc1cc(Nc2nc(/C=C/c3ccccc3)nc(N3CCCC3)c2N)[nH]n1 [Example 15, N-(3-methyl-1H-pyrazol-5-yl)-6-(pyrrolidin-1-yl)-2-[(E)-2-phenylvinyl]pyrimidin-4,5-diamine] | 91% |
| 91% |  | Cc1cc(Nc2nc(/C=C/c3ccccc3)nc(N3CCN(C)CC3)c2[N+](=O)[O-])[nH]n1 [Example 4, 6-(4-methylpiperazin-1-yl)-N-(3-methyl-1H-pyrazol-5-yl)-5-nitro-2-[(E)-2-phenylvinyl]pyrimidin-4-amine] | 87% |
| 100% |  | Cc1cc(Nc2cc(N3CCN(C)CC3)nc(/C=C/c3ccc(Cl)cc3)n2)n[nH]1 [Example 49, 2-(4-chlorostyryl)-N-(5methyl-1H-pyrazol-3-yl)-6-(4-methylpiperazin-1-yl)pyrimidin-4-amine] | 75% |
| 100% |  | Cc1cc(Nc2nc(/C=C/c3ccccc3)nc(C(=O)OC3CCN(C)CC3)c2N)[nH]n1 [Example 24, 1-methylpiperidin-4-yl 5-amino-6-[(3-methyl-1H-pyrazol-5-yl)amino]-2-[(E)-2-phenylvinyl]pyrimidine-4-carboxylate] | 99% |
